Test systems include SW-620 colon; HOP-92 NSCLC; NCI-H23 lung; NCI-H522 lung; SNB-75 CNS; M14 melanoma; CCRF-CEM leukemia; HS 578T breast; SF-539 CNS; SK-MEL-2 melanoma.
Common to all, as to test: NCI anticancer screen, dose series, 48 h

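How tested: cells in 96-well plates exposed to compound for 48 hours at five concentrations. TGI is the concentration that stops growth completely.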 Where a SMILES comes first, the peptide text is derived from it. [ ]: non-standard residue; d: D form. The star is where a group is joined. X28 = COC1=CC(=O)N(C(=O)[C@@H](O*)C(C)C)[C@H]1Cc1ccccc1; NMeL = CN[C@@H](CC(C)C)C(=O)O; Hexanoyl = CCCCCC(=O)*

Turning to `Cc1ccc(S(=O)(=O)OC2CN3CCC2CC3)cc1` (stereo not given), the TGI in the assay on SW-620 colon, with HOP-92 NSCLC, in the assay on NCI-H23 lung, in the assay on NCI-H522 lung, in the assay with SNB-75 CNS and in the assay on M14 melanoma was more than 100 µM throughout. Further, the TGI in the assay on CCRF-CEM leukemia, in the assay on HS 578T breast, in the assay with SF-539 CNS and with SK-MEL-2 melanoma was more than 100 µM throughout.

Take `CCCCCC(=O)N[C@H](C(=O)N[C@H](C(=O)N(C)[C@@H](CC(C)C)C(=O)N1CCC[C@H]1C(=O)N1CCC[C@H]1C(=O)O[C@H](C(=O)N1C(=O)C=C(OC)[C@@H]1Cc1ccccc1)C(C)C)C(C)C)C(C)C` (Hexanoyl-VV[NMeL]PP-X28): the TGI in the assay on SW-620 colon is more than 100 µM; in the assay on HOP-92 NSCLC, more than 100 µM; with NCI-H23 lung, more than 100 µM; with NCI-H522 lung it was more than 100 µM; in the assay on SNB-75 CNS it was 70.8 µM; with M14 melanoma, more than 48.1 µM. Also, the TGI in the assay on CCRF-CEM leukemia, in the assay on HS 578T breast, with SF-539 CNS and in the assay with SK-MEL-2 melanoma was more than 100 µM each time.

Consider `NC12c3c4cccc3Oc3cccc(c31)Oc1cccc(c12)O4`, for which the TGI in the assay on SW-620 colon, in the assay on HOP-92 NSCLC, in the assay with NCI-H23 lung, in the assay on NCI-H522 lung, in the assay with SNB-75 CNS and in the assay with M14 melanoma was more than 50 µM in each case. Besides, the TGI in the assay on CCRF-CEM leukemia, in the assay on HS 578T breast, in the assay on SF-539 CNS and with SK-MEL-2 melanoma was more than 50 µM in each case.

Consider `Cc1cn2c(/C=C3/C(=O)Nc4ccccc43)c(-c3ccccc3)nc2s1`, for which the TGI with SW-620 colon is more than 100 µM; in the assay with HOP-92 NSCLC, more than 100 µM; in the assay on NCI-H23 lung, more than 100 µM; in the assay on NCI-H522 lung, more than 100 µM; with SNB-75 CNS it was 66.8 µM; with M14 melanoma, more than 100 µM. Besides, the TGI in the assay with CCRF-CEM leukemia is more than 100 µM; in the assay on HS 578T breast it was 91 µM; in the assay with SF-539 CNS, 41.7 µM; in the assay on SK-MEL-2 melanoma it was 78.1 µM.

In the case of `CC(=O)C1=CC=C/C1=N\Nc1ccccc1`, the TGI in the assay on SW-620 colon was found to be 15.6 µM; in the assay on HOP-92 NSCLC, 27.3 µM; with NCI-H23 lung it was 26.6 µM; in the assay on NCI-H522 lung, 19.1 µM; with SNB-75 CNS, 24.6 µM; with M14 melanoma it was 22.7 µM. Also, the TGI in the assay on CCRF-CEM leukemia stood at 11.2 µM; in the assay with HS 578T breast, 34.9 µM; in the assay with SF-539 CNS, 8.64 µM; in the assay with SK-MEL-2 melanoma, 27.7 µM.

Take `CCC(C#N)N(Cc1cccc(CN(C(C)=O)C(C#N)CC)c1)C(C)=O` (stereo not given): the TGI with SW-620 colon, in the assay on HOP-92 NSCLC, in the assay on NCI-H23 lung, with NCI-H522 lung, in the assay with SNB-75 CNS and in the assay on M14 melanoma was more than 100 µM in each case. Further, the TGI in the assay with CCRF-CEM leukemia, in the assay on HS 578T breast, with SF-539 CNS and with SK-MEL-2 melanoma was more than 100 µM throughout.

For the compound `COC(=O)CCCc1ccc2c(c1)CCC2`, the TGI in the assay on SW-620 colon, in the assay with HOP-92 NSCLC, in the assay with NCI-H23 lung, with NCI-H522 lung, in the assay on SNB-75 CNS and in the assay on M14 melanoma was more than 100 µM each time. For the same compound, the TGI in the assay on CCRF-CEM leukemia, in the assay with HS 578T breast, with SF-539 CNS and with SK-MEL-2 melanoma was more than 100 µM in each case.

On to `CCOC(=O)Cc1csc(/N=C\c2c(O)c3ccccc3oc2=O)n1`, for which the TGI in the assay with SW-620 colon was more than 100 µM; in the assay with HOP-92 NSCLC it was 47.3 µM; with NCI-H23 lung it was 94.4 µM; in the assay on NCI-H522 lung it was 42.4 µM; in the assay with SNB-75 CNS it was 56.7 µM; with M14 melanoma, more than 100 µM. The TGI in the assay with CCRF-CEM leukemia was 85.9 µM; with HS 578T breast, more than 100 µM; with SF-539 CNS, 56.7 µM; in the assay with SK-MEL-2 melanoma it was 40.4 µM.

As for `CCCCN(CCCC)CC(=O)c1ccc2cc(Cl)c3ccccc3c2c1`, the TGI in the assay with SW-620 colon is more than 100 µM; in the assay with HOP-92 NSCLC, more than 100 µM; in the assay with NCI-H23 lung, more than 100 µM; in the assay on NCI-H522 lung, 47.3 µM; in the assay on SNB-75 CNS, 67.3 µM; in the assay on M14 melanoma it was more than 100 µM. Also, the TGI with CCRF-CEM leukemia is more than 100 µM; in the assay on HS 578T breast it was more than 100 µM; with SF-539 CNS, more than 100 µM; in the assay on SK-MEL-2 melanoma, 69.9 µM.

Take `COc1ccccc1NC(=S)N/N=C(/c1ccccc1)c1ccccn1`: the TGI was determined as 18.4 µM in the assay on SW-620 colon; 15.6 µM with HOP-92 NSCLC; 24.3 µM in the assay on NCI-H23 lung; 17.3 µM in the assay on NCI-H522 lung; 24.7 µM in the assay with SNB-75 CNS; 9.52 µM with M14 melanoma. In addition, the TGI in the assay with CCRF-CEM leukemia stood at 9.54 µM; with HS 578T breast, 53.9 µM; with SF-539 CNS, 12 µM; in the assay on SK-MEL-2 melanoma, 21.7 µM.

Regarding `c1ccc(/C(=N/Nc2cnccn2)c2ncccn2)cc1`, the TGI in the assay with SW-620 colon is more than 100 µM; in the assay with HOP-92 NSCLC, more than 100 µM; in the assay on NCI-H23 lung it was more than 100 µM; with NCI-H522 lung, 44.7 µM; in the assay with SNB-75 CNS, more than 100 µM; with M14 melanoma, more than 100 µM. The TGI in the assay with CCRF-CEM leukemia, in the assay with HS 578T breast, in the assay with SF-539 CNS and in the assay on SK-MEL-2 melanoma was more than 100 µM in each case.

For the origin of these results see PubChem BioAssay (NCI).
